One block for each molecule: values may come before it.
Columns and labels:
[1] = LNP average particle size and polydispersity by dynamic light scattering; assay type: physicochemical; settings: LNP with the compound as amine lipid
From the text: The LNPs have a size of about 1 to about 1,000 nm, about 10 to about 500 nm, about 20 to about 500 nm, in a sub-embodiment about 50 to about 400 nm, in a sub-embodiment about 50 to about 300 nm, in a sub-embodiment about 50 to about 200 nm, and in a sub-embodiment about 50 to about 150 nm, and in another sub-embodiment about 60 to about 120 nm. Preferably, the LNPs have a size from about 60 nm to about 100 nm. The average sizes (diameters) of the fully formed LNP, may be measured by dynamic light scattering on a Malvern Zetasizer. The LNP sample is diluted in phosphate buffered saline (PBS) so that the count rate is approximately 200-400 kcps. The data is presented as a weighted average of the intensity measure.
In some embodiments, the LNPs have a size of about 75 to about 120 nm. In some embodiments, the LNPs have a size of about 75 to about 100 nm. Unless indicated otherwise, all sizes referred to herein are the average sizes (diameters) of the fully formed nanoparticles, as measured by dynamic light scattering on a Malvern Zetasizer. The nanoparticle sample is diluted in phosphate buffered saline (PBS) so that the count rate is approximately 200-400 kcps. The data is presented as a weighted-average of the intensity measure (Z-average diameter).
Dynamic Light Scattering (“DLS”) is used to characterize the polydispersity index (“pdi”) and size of the LNPs of the present disclosure. DLS measures the scattering of light that results from subjecting a sample to a light source. PDI, as determined from DLS measurements, represents the distribution of particle size (around the mean particle size) in a population, with a perfectly uniform population having a PDI of zero. Electropheretic light scattering is used to characterize the surface charge of the LNP at a specified pH. The surface charge, or the zeta potential, is a measure of the magnitude of electrostatic repulsion/attraction between particles in the LNP suspension. Asymmetric-Flow Field Flow Fractionation—Multi-Angle Light Scattering (AF4-MALS) is used to separate particles in the composition by hydrodynamic radius and then measure the molecular weights, hydrodynamic radii and root mean square radii of the fractionated particles. […] Nanoparticle tracking analysis (NTA, Malvern Nanosight) can be used to determine particle size distribution as well as particle concentration. LNP samples are diluted appropriately and injected onto a microscope slide. A camera records the scattered light as the particles are slowly infused through field of view. After the movie is captured, the Nanoparticle Tracking Analysis processes the movie by tracking pixels and calculating a diffusion coefficient. This diffusion coefficient can be translated into the hydrodynamic radius of the particle. The instrument also counts the number of individual particles counted in the analysis to give particle concentration.
LNP compositions are analyzed for average particle size, polydispersity index (pdi), total RNA content, encapsulation efficiency of RNA, and zeta potential. LNP compositions may be further characterized by lipid analysis, AF4-MALS, NTA, and/or cryo-EM. Average particle size and polydispersity are measured by dynamic light scattering (DLS) using a Malvern Zetasizer DLS instrument. LNP samples were diluted with PBS buffer prior to being measured by DLS. Z-average diameter which is an intensity-based measurement of average particle size was reported along with number average diameter and pdi. A Malvern Zetasizer instrument is also used to measure the zeta potential of the LNP. Samples are diluted 1:17 (50 μL into 800 μL) in 0.1×PBS, pH 7.4 prior to measurement.

[2] = RNA encapsulation efficiency of LNP (Ribogreen fluorescence assay); assay type: physicochemical; settings: LNP with the compound as amine lipid
Protocol: A fluorescence-based assay (Ribogreen®, ThermoFisher Scientific) is used to determine total RNA concentration and free RNA. Encapsulation efficiency is calculated as (Total RNA—Free RNA)/Total RNA. LNP samples are diluted appropriately with 1× TE buffer containing 0.2% Triton-X 100 to determine total RNA or 1× TE buffer to determine free RNA. Standard curves are prepared by utilizing the starting RNA solution used to make the compositions and diluted in 1× TE buffer+/−0.2% Triton-X 100. Diluted RiboGreen® dye (according to the manufacturer's instructions) is then added to each of the standards and samples and allowed to incubate for approximately 10 minutes at room temperature, in the absence of light. A SpectraMax M5 Microplate Reader (Molecular Devices) is used to read the samples with excitation, auto cutoff and emission wavelengths set to 488 nm, 515 nm, and 525 nm respectively. Total RNA and free RNA are determined from the appropriate standard curves.
Encapsulation efficiency is calculated as (Total RNA−Free RNA)/Total RNA. The same procedure may be used for determining the encapsulation efficiency of a DNA-based cargo component. For single-strand DNA, Oligreen Dye may be used and for double-strand DNA, Picogreen Dye.

[3] = pKa of amine lipid by TNS fluorescence; assay type: physicochemical; settings: probe TNS (6-(p-toluidino)-2-naphthalenesulfonic acid sodium salt), unformulated amine lipid in ethanol, sodium phosphate buffers -9.0
Procedure, shortened: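 pKa derived from a sigmoidal fit of normalized TNS fluorescence (321 nm excitation, 448 nm emission) versus pH. Lipid from ethanol stock diluted to about 100 μM final in 0.1 M phosphate buffers, pH 4.5–9.0.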

mouse TTR = experiment: Serum TTR ELISA in mice after LNP delivery; assay type: in vivo; settings: mouse serum, relative to TSS control of same experiment
Procedure, shortened: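 Mouse TTR in serum was quantified by ELISA (samples diluted e.g. 10,000- and/or 2,500-fold) 6–7 days after dosing CD-1 females with LNP, typically 0.1 mpk. Values are reported relative to vehicle-treated controls (%).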

[4] = Expt. 2, composition ratio (mol %) 50/9/39.5/3 for Cmpnd 49, 50/9/39.5/1.5 for the others
[5] = Expt. 4, composition ratio (mol %) 50/9/38/3 for Cmpnd 49, 50/10/38.5/1.5 for the others
[6] = Expt. 8, composition ratio (mol %) 50/9/38/3 for Cmpnd 49, 50/10/38.5/1.5 for the others
[7] = Expt. 7, composition ratio (mol %) 50/9/38/3 for Cmpnd 49, 50/10/38.5/1.5 for the others
[8] = Expt. 5, composition ratio (mol %) 50/10/38.5/1.5

Structure (SMILES): CCCCC/C=C\C/C=C\CCCCCCCC(=O)OCC(COC(=O)CCCCCCC/C=C\C/C=C\CCCCC)OC(=O)CCC(CCCC)OC(=O)OCCCN1CCCC1 (stereo not drawn) [Compound 68, 2-((4-(((3-(pyrrolidin-1-yl)propoxy)carbonyl)oxy)octanoyl)oxy)propane-1,3-diyl (9Z,9′Z,12Z,12′Z)-bis(octadeca-9,12-dienoate)]
- Num Ave Size (nm) [1, 4]: 100.4 nm
- PDI [1, 4]: 0.051
- Z-Ave Size (nm) [1, 4]: 122.30 nm
- Encapsulation (%) [2, 4]: 99%
- pKa [3]: 6.32
- Serum TTR % TSS (mouse TTR; dose 0.03 mpk): 68.58 % TSS

Structure (SMILES): CCCCC/C=C\C/C=C\CCCCCCCC(=O)OCC(COC(=O)CCCCCCC/C=C\C/C=C\CCCCC)OC(=O)CCC(CCCCC)OC(=O)NCCN(C)CC (stereo not drawn) [Compound 69, 2-((4-(((2-(ethyl(methyl)amino)ethyl)carbamoyl)oxy)nonanoyl)oxy)propane-1,3-diyl (9Z,9′Z,12Z,12′Z)-bis(octadeca-9,12-dienoate)]
- Num Ave Size (nm) [1, 5]: 88.76 nm
- PDI [1, 5]: 0.017
- Z-Ave Size (nm) [1, 5]: 108.90 nm
- Encapsulation (%) [2, 5]: 96%
- pKa [3]: 6.44
- Serum TTR % TSS (mouse TTR; dose 0.03 mpk): 54% TSS
- Serum TTR % TSS (mouse TTR; dose 0.1 mpk): 12% TSS

Structure (SMILES): CCCCC/C=C\C/C=C\CCCCCCCC(=O)OCC(COC(=O)CCCCCCC/C=C\C/C=C\CCCCC)OC(=O)CCC(CCCCC)OC(=O)NCC1CCCN1C (stereo not drawn) [Compound 70, 2-((4-((((1-methylpyrrolidin-2-yl)methyl)carbamoyl)oxy)nonanoyl)oxy)propane-1,3-diyl (9Z,9′Z,12Z,12′Z)-bis(octadeca-9,12-dienoate)]
- Num Ave Size (nm) [1, 6]: 102 nm
- PDI [1, 6]: 0.018
- Z-Ave Size (nm) [1, 6]: 124.2 nm
- Encapsulation (%) [2, 6]: 99%
- pKa [3]: 6.61
- Serum TTR % TSS (mouse TTR; dose 0.03 mpk): 126.29 % TSS
- Serum TTR % TSS (mouse TTR; dose 0.1 mpk): 87.49 % TSS

Structure (SMILES): CCCCC/C=C\C/C=C\CCCCCCCC(=O)OCC(COC(=O)CCCCCCC/C=C\C/C=C\CCCCC)OC(=O)CCC(CCCCC)OC(=O)OCCCN1CCCC1 (stereo not drawn) [Compound 71, 2-((4-(((3-(pyrrolidin-1-yl)propoxy)carbonyl)oxy)nonanoyl)oxy)propane-1,3-diyl (9Z,9′Z,12Z,12′Z)-bis(octadeca-9,12-dienoate)]
- Num Ave Size (nm) [1, 7]: 86.63 nm
- PDI [1, 7]: 0.035
- Z-Ave Size (nm) [1, 7]: 104.5 nm
- Encapsulation (%) [2, 7]: 97%
- pKa [3]: 6.28
- Serum TTR % TSS (mouse TTR; dose 0.03 mpk): 47.425 % TSS
- Serum TTR % TSS (mouse TTR; dose 0.1 mpk): 15.055 % TSS

The next lines start with results.

- Num Ave Size (nm) [1, 5]: 76.59 nm
- PDI [1, 5]: 0.029
- Z-Ave Size (nm) [1, 5]: 95.81 nm
- Encapsulation (%) [2, 5]: 97%
- pKa [3]: 6.41
Structure (SMILES): CCCCC/C=C\C/C=C\CCCCCCCC(=O)OCC(COC(=O)CCCCCCC/C=C\C/C=C\CCCCC)OC(=O)CCC(CCCCCCC)OC(=O)NCCN(C)CC (stereo not drawn) [Compound 73, 2-((4-(((2-(ethyl(methyl)amino)ethyl)carbamoyl)oxy)undecanoyl)oxy)propane-1,3-diyl (9Z,9′Z,12Z,12′Z)-bis(octadeca-9,12-dienoate)]
- Serum TTR % TSS (mouse TTR; dose 0.03 mpk): 25% TSS
- Serum TTR % TSS (mouse TTR; dose 0.1 mpk): 4% TSS

- Num Ave Size (nm) [1, 6]: 74.58 nm
- PDI [1, 6]: 0.024
- Z-Ave Size (nm) [1, 6]: 92.14 nm
- Encapsulation (%) [2, 6]: 99%
- pKa [3]: 6.44
Structure (SMILES): CCCCC/C=C\C/C=C\CCCCCCCC(=O)OCC(COC(=O)CCCCCCC/C=C\C/C=C\CCCCC)OC(=O)CCC(CCCCCCC)OC(=O)NCC1CCCN1C (stereo not drawn) [Compound 74, 2-((4-((((1-methylpyrrolidin-2-yl)methyl)carbamoyl)oxy)undecanoyl)oxy)propane-1,3-diyl (9Z,9′Z,12Z,12′Z)-bis(octadeca-9,12-dienoate)]
- Serum TTR % TSS (mouse TTR; dose 0.03 mpk): 100.54 % TSS
- Serum TTR % TSS (mouse TTR; dose 0.1 mpk): 110.06 % TSS

- Num Ave Size (nm) [1, 7]: 73.46 nm
- PDI [1, 7]: 0.02
- Z-Ave Size (nm) [1, 7]: 89.78 nm
- Encapsulation (%) [2, 7]: 98%
- pKa [3]: 6.17
Structure (SMILES): CCCCC/C=C\C/C=C\CCCCCCCC(=O)OCC(COC(=O)CCCCCCC/C=C\C/C=C\CCCCC)OC(=O)CCC(CCCCCCC)OC(=O)OCCCN1CCCC1 (stereo not drawn) [Compound 75, 2-((4-(((3-(pyrrolidin-1-yl)propoxy)carbonyl)oxy)undecanoyl)oxy)propane-1,3-diyl (9Z,9′Z,12Z,12′Z)-bis(octadeca-9,12-dienoate)]
- Serum TTR % TSS (mouse TTR; dose 0.03 mpk): 45.098 % TSS
- Serum TTR % TSS (mouse TTR; dose 0.1 mpk): 11.996 % TSS

- Num Ave Size (nm) [1, 8]: 78 nm
- PDI [1, 8]: 0.08
- Z-Ave Size (nm) [1, 8]: 104.00 nm
- Encapsulation (%) [2, 8]: 98%
- pKa [3]: 7.23
Structure (SMILES): CCCCC/C=C\C/C=C\CCCCCCCC(=O)OCC(COC(=O)CCCCCCC/C=C\C/C=C\CCCCC)OC(=O)CCC(CCCCCC)OC(=O)NCCN1CCC1 (stereo not drawn) [Compound 77, 2-((4-(((2-(azetidin-1-yl)ethyl)carbamoyl)oxy)decanoyl)oxy)propane-1,3-diyl (9Z,9′Z,12Z,12′Z)-bis(octadeca-9,12-dienoate)]
- Serum TTR % TSS (mouse TTR; dose 0.03 mpk): 68.3 % TSS
- Serum TTR % TSS (mouse TTR; dose 0.1 mpk): 80.6 % TSS

- Num Ave Size (nm) [1, 8]: 59 nm
- PDI [1, 8]: 0.13
- Z-Ave Size (nm) [1, 8]: 91.00 nm
- Encapsulation (%) [2, 8]: 97%
- pKa [3]: 5.93
Structure (SMILES): CCCCC/C=C\C/C=C\CCCCCCCC(=O)OCC(COC(=O)CCCCCCC/C=C\C/C=C\CCCCC)OC(=O)CCC(CCCCCC)OC(=O)NCCN1CCCCC1 (stereo not drawn) [Compound 78, 2-((4-(((2-(piperidin-1-yl)ethyl)carbamoyl)oxy)decanoyl)oxy)propane-1,3-diyl (9Z,9′Z,12Z,12′Z)-bis(octadeca-9,12-dienoate)]
- Serum TTR % TSS (mouse TTR; dose 0.03 mpk): 99.8 % TSS
- Serum TTR % TSS (mouse TTR; dose 0.1 mpk): 66.5 % TSS

- Num Ave Size (nm) [1, 8]: 55 nm
- PDI [1, 8]: 0.09
- Z-Ave Size (nm) [1, 8]: 75.00 nm
- Encapsulation (%) [2, 8]: 98%
- pKa [3]: 4.96
Structure (SMILES): CCCCC/C=C\C/C=C\CCCCCCCC(=O)OCC(COC(=O)CCCCCCC/C=C\C/C=C\CCCCC)OC(=O)CCC(CCCCCC)OC(=O)NC(C)(C)CN1CCCC1 (stereo not drawn) [Compound 79, 2-((4-(((2-methyl-1-(pyrrolidin-1-yl)propan-2-yl)carbamoyl)oxy)decanoyl)oxy)propane-1,3-diyl (9Z,9′Z,12Z,12′Z)-bis(octadeca-9,12-dienoate)]
- Serum TTR % TSS (mouse TTR; dose 0.03 mpk): 86.9 % TSS
- Serum TTR % TSS (mouse TTR; dose 0.1 mpk): 100.4 % TSS

— patent publication US12077483B2, “Modified amine lipids” (Intellia Therapeutics, Inc., priority 2018, dated 2024)
